In US10167293B2, “[8-(phenylsulfonyl)-3,8-diazabicyclo[3.2.1]oct-3-yl](1H-1,2,3-triazol-4-yl)methanones” (BAYER PHARMA AKTIENGESELLSCHAFT, priority 2016, dated 2019):

Key:
[1] = biological target: recombinant human AKR1C3 (Homo sapiens (Human), UniProt P42330); experiment: AKR1C3-inhibitory activity assay (Coumberone to Coumberol fluorescence); type: biochemical; settings: recombinant human AKR1C3, 15 min pre-incubation, 10 μM NADPH, 0.3 μM Coumberone
Protocol: The AKR1C3-inhibitory activity of the substances of the present invention was measured in the AKR1C3 assay described in the paragraphs below.
Essentially, the enzyme activity is measured by quantification of the generation of Coumberol from Coumberone (Halim et al. J. AM. CHEM. SOC. 2008, 130:14123-14128 and Yee et al. Proc. Natl. Acad. Sci. USA 2006, 103:13304-13309). In this test, the increase of the highly fluorescent Coumberol by NADPH—(nicotinamide adenine dinucleotide phosphate)-dependent reduction of the non-fluorescent Coumberone by AKR1C3 was determined.
The enzyme used was recombinant human AKR1C3 (Aldo-keto reductase family 1 member C3; GenBank Accession No. NM_003739). This was expressed in E. coli as GST (glutathione S transferase) fusion protein and purified by glutathione Sepharose affinity chromatography. The GST was removed by digestion with thrombin and subsequent size exclusion chromatography (Dufort, I., Rheault, P., Huang, X F., Soucy, P., and Luu-The, V., Endocrinology 140, 568-574 (1999)).
For the assay, 50 nl of a 100-fold concentrated solution of the test substance in DMSO were pipetted into a black low-volume 384-well microtiter plate (Greiner Bio-One, Frickenhausen, Germany), 2.5 μl of a solution of AKR1C3 in assay buffer [50 mM potassium phosphate buffer pH 7, 1 mM DTT, 0.0022% (w/v) Pluronic F-127, 0.01% BSA (w/v) and protease inhibitor cocktail (Complete, EDTA-free Protease Inhibitor Cocktail from Roche)] were added and the mixture was incubated for 15 min to allow pre-binding of the substances to the enzyme prior to the enzyme reaction. The enzyme reaction was then started by addition of 2.5 μl of a solution of NADPH (20 μM→final concentration in 5 μl of assay volume is 10 μM) and Coumberone (0.6 μM→final concentration in 5 μl of assay volume is 0.3 μM) in assay buffer, and the resulting mixture was incubated at 22° C. for the reaction time of typically 90 min. The concentration of the AKR1C3 and the reaction time was adapted to the respective activity of the enzyme preparation and adjusted such that the assay was carried out in the linear range. Typical AKR1C3 concentrations were in the region of 1 nM. The reaction was stopped by addition of 2.5 μl of a stop solution consisting of 3 μM EM-1404 as inhibitor (U.S. Pat. No. 6,541,463) in 50 mM HEPES pH7.5 (3 μM EM-1404→final concentration in 7.5 μl of assay volume is 1 μM). The fluorescence of the Coumberole was then measured at 520 nm (excitation at 380 nm) using a suitable measuring instrument (Pherastar from BMG Labtechnologies). The intensity of the fluorescence was used as a measure of the amount of Coumberole formed and thus of the enzyme activity of AKR1C3. The data were normalized (enzyme reaction without inhibitor=0% inhibition; all other assay components, but no enzyme=100% inhibition).

[2] = tested on: human primary adipocytes; experiment: Inhibition of testosterone formation from androstenedione in human primary adipocytes; type: cell-based; settings: 1 μM androstenedione, 1 μM or 10 μM compound, 48 h, donors with BMI 26 and 30
Protocol: Cat# SA-1012-3 12 well Platte). Adipocytes were incubated in Adipocyte Basal Medium (Fa. ZenBio, Cat# BM-1)+1% FCS+2.5 μg/ml Amphotericin B (Fa. […] Androstenedione served as a substrate for the formation into testosterone. After the incubation adipocytes were collected and testosterone and androstenedione concentrations were determined by LC/MS at the “Bioanalytical Service and research provider Pharm-Analyt”. Inhibition of the conversion of androstenedione to testosterone by compound 76 is determined as Testosterone/Androstenedione ratio [%]. […] FIG. 1: […] The testosterone/androstenedione ratio [%] is shown.

[3] = tested on: endometriotic lesions; experiment: Callithrix jacchus endometriosis model; type: in vivo; settings: 5 mg/kg orally once per day, 6 weeks
Protocol: The in vivo efficacy of compound 76 was tested in a non-human primate endometriosis model in marmoset monkeys.
Marmoset monkeys (Callithrix jacchus) are non-menstruating species in which endometriosis was induced by injection of endometrial tissue into the peritoneal cavity (Einspanier, Lieder et al, 2006). 6-12 year old female common marmosets with established endometriosis were employed (body weight between 358 g and 520 g) and distributed into 2 groups, with a size of n=5 animals per group. Prior to the actual start of the treatment, the animals were subjected to a laparotomy and examined for the presence of endometriotic lesions on the bladder, the uterus and the ovaries to measure each lesion's area. The randomization of animals into the two treatment groups was performed with respect to the initial lesion status at the first laparotomy. The endometriosis severity based on total lesion area per animal was distributed similarly across the groups.
For both the treatment group (5 mg/kg of compound 76) and vehicle treated group, the sum of total lesion area/size [cm^2] per animal, with respect to lesion area and lesion number, was determined and defined as pre-treatment status. 6 weeks later the treatment was started. The test compounds were administered orally once per day in capsules (PC Caps® capsules, Capsugel). To adapt for the intended dose, a trituration of the active compound with lactose was prepared and the exact dose was filled into the individual capsules. Each capsule was separately coated with salvia resistant coating (Eudragit EPO; Evonik). After the end of a 6 weeks treatment period, a second laparotomy was carried out and the number and size of the lesions on uterus, ovaries and bladder was determined with respect to total lesion size/area and defined as post-treatment status.

Sequence of recombinant human AKR1C3 (P42330 whole entry): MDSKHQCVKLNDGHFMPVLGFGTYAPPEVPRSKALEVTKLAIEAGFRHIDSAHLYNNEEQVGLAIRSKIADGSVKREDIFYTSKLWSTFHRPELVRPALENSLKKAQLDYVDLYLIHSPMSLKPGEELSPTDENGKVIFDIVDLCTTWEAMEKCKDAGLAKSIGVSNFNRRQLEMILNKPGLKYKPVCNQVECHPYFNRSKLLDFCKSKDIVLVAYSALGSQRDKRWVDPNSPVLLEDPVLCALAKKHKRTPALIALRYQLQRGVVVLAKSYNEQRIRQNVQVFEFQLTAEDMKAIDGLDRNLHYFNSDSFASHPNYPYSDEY

SMILES | IC50 [1] | further results
Cc1ccc(Cl)cc1S(=O)(=O)N1C2CCC1CN(C(=O)c1cnn[nH]1)C2 [Example 63, {8-[(5-chloro-2-methylphenyl)sulfonyl]-3,8-diazabicyclo[3.2.1]oct-3-yl}(1H-1,2,3-triazol-5-yl)methanone] | 1.7 nM | 
COc1ccccc1S(=O)(=O)N1C2CCC1CN(C(=O)c1cnn[nH]1)C2 [Example 64, {8-[(2-methoxyphenyl)sulfonyl]-3,8-diazabicyclo[3.2.1]oct-3-yl}(1H-1,2,3-triazol-5-yl)methanone] | 1.3 nM | 
Cc1ccc(Br)cc1S(=O)(=O)N1C2CCC1CN(C(=O)c1cnn[nH]1)C2 [Example 65, {8-[(5-bromo-2-methylphenyl)sulfonyl]-3,8-diazabicyclo[3.2.1]oct-3-yl}(1H-1,2,3-triazol-5-yl)methanone] | 0.5 nM | 
O=C(c1cnn[nH]1)N1CC2CCC(C1)N2S(=O)(=O)c1ccc2c(c1)OCO2 [Example 66, [8-(1,3-benzodioxol-5-ylsulfonyl)-3,8-diazabicyclo[3.2.1]oct-3-yl](1H-1,2,3-triazol-5-yl)methanone] | 0.9 nM | 
COc1cc(C)ccc1S(=O)(=O)N1C2CCC1CN(C(=O)c1cnn[nH]1)C2 [Example 67, {8-[(2-methoxy-4-methylphenyl)sulfonyl]-3,8-diazabicyclo[3.2.1]oct-3-yl}(1H-1,2,3-triazol-5-yl)methanone] | 1 nM | 
N#Cc1c(Cl)cccc1S(=O)(=O)N1C2CCC1CN(C(=O)c1cnn[nH]1)C2 [Example 68, 2-chloro-6-{[3-(1H-1,2,3-triazol-5-ylcarbonyl)-3,8-diazabicyclo[3.2.1]oct-8-yl]sulfonyl}benzonitrile] | 1.3 nM | 
O=C(c1cnn[nH]1)N1CC2CCC(C1)N2S(=O)(=O)c1cccc2c1OCC2 [Example 69, [8-(2,3-dihydro-1-benzofuran-7-ylsulfonyl)-3,8-diazabicyclo[3.2.1]oct-3-yl](1H-1,2,3-triazol-5-yl)methanone] | 0.6 nM | 
O=C(c1cnn[nH]1)N1CC2CCC(C1)N2S(=O)(=O)c1cc(F)ccc1Cl [Example 70, {8-[(2-chloro-5-fluorophenyl)sulfonyl]-3,8-diazabicyclo[3.2.1]oct-3-yl}(1H-1,2,3-triazol-5-yl)methanone] | 0.5 nM | 
O=C(c1cnn[nH]1)N1CC2CCC(C1)N2S(=O)(=O)c1cccc(F)c1Cl [Example 71, {8-[(2-chloro-3-fluorophenyl)sulfonyl]-3,8-diazabicyclo[3.2.1]oct-3-yl}(1H-1,2,3-triazol-5-yl)methanone] | 0.8 nM | 
COc1cc(F)ccc1S(=O)(=O)N1C2CCC1CN(C(=O)c1cnn[nH]1)C2 [Example 72, {8-[(4-fluoro-2-methoxyphenyl)sulfonyl]-3,8-diazabicyclo[3.2.1]oct-3-yl}(1H-1,2,3-triazol-5-yl)methanone] | 1.1 nM | 
COc1ccc(C#N)cc1S(=O)(=O)N1C2CCC1CN(C(=O)c1cnn[nH]1)C2 [Example 73, 4-methoxy-3-{[3-(1H-1,2,3-triazol-5-ylcarbonyl)-3,8-diazabicyclo[3.2.1]oct-8-yl]sulfonyl}benzonitrile] | 28 nM | 
N#Cc1ccc(Cl)c(S(=O)(=O)N2C3CCC2CN(C(=O)c2cnn[nH]2)C3)c1 [Example 74, 4-chloro-3-{[3-(1H-1,2,3-triazol-5-ylcarbonyl)-3,8-diazabicyclo[3.2.1]oct-8-yl]sulfonyl}benzonitrile] | 5.5 nM | 
O=C(c1cnn[nH]1)N1CC2CCC(C1)N2S(=O)(=O)c1cc(F)cc(F)c1 [Example 75, sodium 5-({8-[(3,5-difluorophenyl)sulfonyl]-3,8-diazabicyclo[3.2.1]oct-3-yl}carbonyl)-1,2,3-triazol-1-ide] | 0.7 nM | 
O=C(c1cnn[n-]1)N1CC2CCC(C1)N2S(=O)(=O)c1cccc(F)c1.[Na+] [Example 76, sodium 5-({8-[(3-fluorophenyl)sulfonyl]-3,8-diazabicyclo[3.2.1]oct-3-yl}carbonyl)-1,2,3-triazol-1-ide] | 1.1 nM | formation of testosterone from androstenedione (Testosterone/Androstenedione ratio) [2]: inhibited; mean reduction of the total lesion size compared to baseline ([3]; n=5): 68.9%; ratio of total lesion size/area post- versus pre-treatment ([3]; all treated animals): below 1; total lesion size post-treatment versus pre-treatment ([3]; marmosets with established endometriosis): strongly reduced
